Source: publication PMC7413254 (Nature Communications, 2020)
“And” between values parts separate entries of the source, which are not always exact repeats. Equal entries are not always repeated. Where two headings read alike, the source gives them in different places.

Columns and labels:
[1] = molecular target: T1, PfCRT^Ecu1110 (Plasmodium falciparum, UniProt Q9N623, A220S/I356L/K76T/N326D); assay: [3H]CQ uptake into Xenopus oocytes, cis-inhibition by unlabelled solute; type: cell-based
Method in brief: (§1)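 Oocytes expressing PfCRT isoforms, or non-expressing controls, were incubated 1.5 h at 27.5 °C in ND96 buffer pH 5.5 (96 mM NaCl, 2 mM KCl, 1 mM MgCl2, 1.8 mM CaCl2, 10 mM MES, 10 mM Tris-base), measuring uptake from acidic medium into cytosol. Oocytes were washed ice-cold, SDS-lysed and counted by scintillation.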

[2] = molecular target: T2, PfCRT^Dd2 (Plasmodium falciparum, UniProt Q9N623, A220S/I356T/K76T/M74I/N326S/N75E/Q271E/R371I); assay: as above; type: cell-based
T2 sequence (Q9N623 whole entry A220S/I356T/K76T/M74I/N326S/N75E/Q271E/R371I): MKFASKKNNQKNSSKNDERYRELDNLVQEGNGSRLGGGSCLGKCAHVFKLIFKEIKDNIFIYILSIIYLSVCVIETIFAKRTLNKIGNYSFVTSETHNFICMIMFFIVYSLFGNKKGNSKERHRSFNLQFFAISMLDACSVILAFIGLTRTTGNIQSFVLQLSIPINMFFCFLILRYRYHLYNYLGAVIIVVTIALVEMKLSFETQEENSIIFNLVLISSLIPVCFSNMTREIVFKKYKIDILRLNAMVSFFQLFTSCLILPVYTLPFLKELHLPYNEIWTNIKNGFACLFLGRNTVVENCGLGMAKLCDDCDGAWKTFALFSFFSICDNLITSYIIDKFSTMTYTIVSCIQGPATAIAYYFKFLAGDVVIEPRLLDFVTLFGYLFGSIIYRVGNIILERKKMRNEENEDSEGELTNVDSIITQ
Method in brief: as §1

[3] = molecular target: T1, PfCRT^Ecu1110; assay: cell-based; type: cell-based; details: […]
Method in brief: (§2)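 Transport measured in Xenopus oocytes expressing the transporters, 1.5 h at 27.5 °C in ND96 pH 5.5 unless noted. For trans-stimulation, VF-6 injected in 25 nL ND96 at pH 5.0–7.0 or Na^+-free (choline) buffer; intracellular levels based on ~400 nL oocyte volume. Ten oocytes per treatment, ≥4 experiments.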

[4] = molecular target: T3, PfCRT^3D7 (Plasmodium falciparum, UniProt Q8IBZ9); assay: cell-based; type: cell-based
T3 sequence (Q8IBZ9 59-398): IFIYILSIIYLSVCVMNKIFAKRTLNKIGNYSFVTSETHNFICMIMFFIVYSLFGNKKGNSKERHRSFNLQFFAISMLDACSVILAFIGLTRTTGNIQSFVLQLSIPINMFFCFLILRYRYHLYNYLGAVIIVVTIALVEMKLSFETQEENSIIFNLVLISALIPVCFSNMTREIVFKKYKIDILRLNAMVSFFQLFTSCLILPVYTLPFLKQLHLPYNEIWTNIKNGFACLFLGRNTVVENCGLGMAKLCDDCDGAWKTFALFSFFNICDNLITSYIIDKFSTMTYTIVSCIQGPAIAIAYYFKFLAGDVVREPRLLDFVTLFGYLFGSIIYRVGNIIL
Method in brief: as §2

[5] = molecular target: T4, PfNT1 (Plasmodium falciparum, UniProt Q8IDM6); assay: cell-based; type: cell-based; details: […]
T4 construct: expressed in transfected cells; host or cells: Xenopus laevis oocytes (stage V-VI), cRNA-injected
T4 sequence (Q8IDM6 whole entry): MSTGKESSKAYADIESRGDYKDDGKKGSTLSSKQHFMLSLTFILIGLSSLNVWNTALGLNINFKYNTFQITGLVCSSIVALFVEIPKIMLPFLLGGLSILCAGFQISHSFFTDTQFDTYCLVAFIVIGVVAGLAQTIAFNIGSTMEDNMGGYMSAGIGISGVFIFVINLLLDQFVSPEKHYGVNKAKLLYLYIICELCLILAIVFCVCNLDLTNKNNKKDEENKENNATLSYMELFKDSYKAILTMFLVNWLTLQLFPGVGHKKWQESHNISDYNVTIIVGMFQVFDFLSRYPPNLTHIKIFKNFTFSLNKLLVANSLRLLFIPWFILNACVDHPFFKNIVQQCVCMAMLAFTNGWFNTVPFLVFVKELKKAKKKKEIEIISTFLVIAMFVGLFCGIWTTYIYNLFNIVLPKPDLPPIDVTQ
Method in brief: as §2

[6] = molecular target: T2, PfCRT^Dd2; assay: cell-based; type: cell-based; details: […]
Method in brief: as §2

[7] = test system: PfCRT; assay: Test of solutes as potential co-substrates for influx of VF-6 via PfCRT into the oocyte; type: cell-based, Plasmodium falciparum; parameters: key: X: Compounds that have been tested as potential co-substrates but are not required for influx of VF-6 via PfCRT into the oocyte; details: X = tested
[8] = test system: non-expressing oocytes; assay: cells; type: cell-based, Xenopus laevis; details: Xenopus laevis, Oocyte
Method in brief: as §1

[9] = molecular target: T3, PfCRT^3D7; assay: cell-based; type: cell-based; remark: listed apart in the source
Method in brief: as §1

[10] = test system: non-expressing oocytes; type: cell-based, Xenopus laevis
Method in brief: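 Oocytes (ten per treatment, ≥4 independent frogs/days) were preloaded by injecting VF-6 in 25 nL ND96 at pH 5.0, 5.5, 6.0 or 7.0, or Na^+-free choline buffer, then uptake run 1.5 h, 27.5 °C, ND96 pH 5.5 by default. Internal concentrations assumed ~400 nL oocyte volume.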

[11] = test system: PfCRT; assay: Influx of VF-6 via PfCRT into the oocyte, solutes tested as potential co-substrates; type: cell-based, Plasmodium falciparum; parameters: key: X: Compounds that have been tested as potential co-substrates but are not required for influx of VF-6 via PfCRT into the oocyte; details: X marks the solute
[12] = read-out: PfCRT-mediated [3H]CQ transport, cis-inhibition (% PfCRTEcu1110 control)
[13] = read-out: Uptake of [3H]CQ (% PfCRTDd2 control), cis-inhibition, PfCRTEcu1110, SEM
[14] = read-out: Uptake of [3H]CQ (% PfCRTEcu1110 control), cis-inhibition
[15] = read-out: [3H]CQ transport (% PfCRTEcu1110 control), cis-inhibition, PfCRTEcu1110, SEM
[16] = read-out: PfCRT-mediated [3H]CQ transport, cis-inhibition (% PfCRTDd2 control)
[17] = read-out: Uptake of [3H]CQ (% PfCRTDd2 control), cis-inhibition, PfCRTDd2, SEM
[18] = read-out: PfCRT-mediated [3H]CQ transport, trans-stimulation (% PfCRT3D7 control)
[19] = read-out: Uptake of [3H]CQ (% PfCRT3D7 control), trans-stimulation
[20] = read-out: Uptake of [3H]CQ (% PfCRTDd2 control), trans-stimulation, PfCRT3D7, SEM
[21] = read-out: Uptake of [3H]CQ (% PfCRTDd2 control), trans-stimulation, PfNT1, SEM
[22] = read-out: Uptake of [3H]CQ (% PfNT1 control), trans-stimulation
[23] = read-out: Uptake of [3H]CQ (% PfCRTDd2 control), cis-inhibition, non-expressing oocytes, SEM
[24] = read-out: Uptake of [3H]CQ (% non-expressing oocyte control), cis-inhibition
[25] = read-out: Uptake of [3H]CQ (% PfCRT3D7 control), cis-inhibition
[26] = read-out: Uptake of [3H]CQ (% PfCRTDd2 control), cis-inhibition, PfCRT3D7, SEM

T1 sequence (Q9N623 whole entry A220S/I356L/K76T/N326D, canonical isoform): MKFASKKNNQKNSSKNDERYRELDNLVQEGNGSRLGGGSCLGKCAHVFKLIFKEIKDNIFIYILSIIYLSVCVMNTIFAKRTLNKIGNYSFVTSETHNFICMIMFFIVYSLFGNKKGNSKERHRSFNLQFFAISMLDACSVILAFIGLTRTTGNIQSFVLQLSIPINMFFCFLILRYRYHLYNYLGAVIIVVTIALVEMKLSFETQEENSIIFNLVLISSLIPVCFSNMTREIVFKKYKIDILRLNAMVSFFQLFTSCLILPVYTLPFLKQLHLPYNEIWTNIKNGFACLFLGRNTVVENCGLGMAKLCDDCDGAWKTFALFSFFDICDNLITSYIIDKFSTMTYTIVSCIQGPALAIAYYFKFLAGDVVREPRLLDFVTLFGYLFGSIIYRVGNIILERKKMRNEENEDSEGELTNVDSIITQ

SMILES: CSCC[C@H](N)C(=O)O [L-methionine]
- inhibition at 500 µM [1, 12]: 94 ± 4.4%
- inhibition at 1000 µM [1, 12]: 95 ± 3.1%
- inhibition at 2000 µM [1, 12]: 98 ± 1.5%
- inhibition at 500 µM [1, 13]: 31 ± 1.5%
- inhibition at 1000 µM [1, 13]: 32 ± 1.1%
- inhibition at 2000 µM [1, 13]: 33 ± 1.2%
- inhibition at 500 µM [1, 14]: 96 ± 2.5%
- inhibition at 1000 µM [1, 14]: 97 ± 5.3%
- inhibition at 2000 µM [1, 14]: 100 ± 2.5%
- inhibition at 500 µM [1, 15]: 28 ± 0.5%
- inhibition at 1000 µM [1, 15]: 29 ± 0.5%
- inhibition at 2000 µM [1, 15]: 30 ± 0.5%
- inhibition at 500 µM [2, 16]: 96 ± 3.6%
- inhibition at 2000 µM [2, 16]: 95 ± 5.1%
- inhibition at 500 µM [2, 17]: 98 ± 2.4%
- inhibition at 1000 µM [2, 17]: 100 ± 2.1%
- inhibition at 2000 µM [2, 17]: 97 ± 2.4%
- activity at 5000 µM ([3]; pH 5.5, read-out: Uptake of [3H]CQ (% PfCRTEcu1110 control), trans-stimulation, PfCRTEcu1110 oocytes, [test solute]i = 5 mM, total [3H]CQ transport, normalised to the oocyte type control): 98 ± 2.1%
- activity at 45000 µM ([3]; pH 5.5, read-out: Uptake of [3H]CQ (% PfCRTEcu1110 control), trans-stimulation, PfCRTEcu1110 oocytes, [test solute]i = 45 mM (30 mM for some solutes due to solubility), total [3H]CQ transport, normalised to the oocyte type control): 100 ± 3.2%
- activity at 5000 µM ([3]; read-out: Uptake of [3H]CQ (% PfCRTDd2 control), trans-stimulation, PfCRTEcu1110, total [3H]CQ transport, [test solute]i = 5 mM (intracellular), mean ± SEM, SEM): 35 ± 1.3%
- activity at 45000 µM ([3]; read-out: Uptake of [3H]CQ (% PfCRTDd2 control), trans-stimulation, PfCRTEcu1110, total [3H]CQ transport, [test solute]i = 45 mM (intracellular; 30 mM for some solutes due to solubility), mean ± SEM, SEM): 36 ± 2.2%
- [3H]CQ transport (% PfCRT3D7 control), trans-stimulation, PfCRT3D7 ([4]; SEM): 0.3 ± 0.03 % PfCRT3D7 control
- activity at 5000 µM [4, 18]: 97 ± 2.1%
- activity at 45000 µM [4, 18]: 97 ± 2.7%
- activity at 5000 µM [4, 19]: 99 ± 3.6%
- activity at 45000 µM [4, 19]: 99 ± 3.1%
- activity at 5000 µM [4, 20]: 3.3 ± 0.03%
- activity at 45000 µM [4, 20]: 3.3 ± 0.02%
- activity at 5000 µM [5, 21]: 2.2 ± 0.06%
- activity at 45000 µM [5, 21]: 2.7 ± 0.04%
- activity at 5000 µM [5, 22]: 100 ± 2.5%
- activity at 45000 µM [5, 22]: 99 ± 2.6%
- activity at 5000 µM ([6]; pH 5.5, read-out: Uptake of [3H]CQ (% PfCRTDd2 control), trans-stimulation, PfCRTDd2, total [3H]CQ transport, [test solute]i = 5 mM (intracellular), mean ± SEM, SEM): 100 ± 3.2%
- activity at 5000 µM ([6]; pH 5.5, read-out: Uptake of [3H]CQ (% PfCRTDd2 control), trans-stimulation, PfCRTDd2 oocytes, [test solute]i = 5 mM, total [3H]CQ transport, normalised to the oocyte type control): 100 ± 3.2%
- activity at 45000 µM ([6]; pH 5.5, read-out: Uptake of [3H]CQ (% PfCRTDd2 control), trans-stimulation, PfCRTDd2 oocytes, [test solute]i = 45 mM (30 mM for some solutes due to solubility), total [3H]CQ transport, normalised to the oocyte type control): 99 ± 1%
- Tested as potential co-substrate but not required for influx of VF-6 via PfCRT into the oocyte [7]: X
- inhibition at 500 µM [8, 23]: 2.7 ± 0.03%
- inhibition at 1000 µM [8, 23]: 2.5 ± 0.01%
- inhibition at 2000 µM [8, 23]: 2.9 ± 0.04%
- inhibition at 500 µM [8, 24]: 99 ± 3.6%
- inhibition at 1000 µM [8, 24]: 99 ± 3.5%
- inhibition at 2000 µM [8, 24]: 101 ± 4.6%
- inhibition at 500 µM [9, 25]: 100 ± 3.6%
- inhibition at 1000 µM [9, 25]: 100 ± 3.3%
- inhibition at 2000 µM [9, 25]: 102 ± 2.5%
- inhibition at 500 µM [9, 26]: 2.4 ± 0.07%
- inhibition at 1000 µM [9, 26]: 2.2 ± 0.06%
- inhibition at 2000 µM [9, 26]: 3.4 ± 0.07%
- Uptake of [3H]CQ (% non-expressing oocyte control), trans-stimulation [10]: 99 ± 3.8 % non-expressing oocyte control and 98 ± 4.2 % non-expressing oocyte control
- Uptake of [3H]CQ (% PfCRTDd2 control), trans-stimulation, non-expressing oocytes ([10]; SEM): 2.4 ± 0.02 % PfCRTDd2 control and 2.8 ± 0.03 % PfCRTDd2 control
- Compounds that have been tested as potential co-substrates but are not required for influx of VF-6 via PfCRT into the oocyte [11]: X
